# Assay results published in PubChem BioAssay (NCI).
# Where “and” joins values, the source holds several entries; their conditions need not be identical. Identical values can stand only once.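 Assay format: 96-well plates, 48-hour exposure. Abbreviation: GI50, concentration required for 50% inhibition of growth. At the TGI there is no net growth.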
# What was measured:
# Test in all cases: growth of human tumour cells (NCI), 48 h
# SF-295 CNS = tested on: SF-295 CNS
# COLO 205 colon = tested on: COLO 205 colon
# HCC-2998 colon = tested on: HCC-2998 colon
# OVCAR-8 ovarian = tested on: OVCAR-8 ovarian
# HT29 colon = tested on: HT29 colon
# UO-31 renal = tested on: UO-31 renal
# SNB-19 CNS = tested on: SNB-19 CNS
# HOP-62 NSCLC = tested on: HOP-62 NSCLC
# PC-3 prostate = tested on: PC-3 prostate
# SN12C renal = tested on: SN12C renal
Structure (SMILES),GI50 (SF-295 CNS),TGI (SF-295 CNS),GI50 (COLO 205 colon),TGI (COLO 205 colon) [µM],GI50 (HCC-2998 colon),TGI (HCC-2998 colon) [µM],GI50 (OVCAR-8 ovarian),TGI (OVCAR-8 ovarian) [µM],GI50 (HT29 colon),TGI (HT29 colon) [µM],GI50 (UO-31 renal),TGI (UO-31 renal),GI50 (SNB-19 CNS),TGI (SNB-19 CNS),GI50 (HOP-62 NSCLC),TGI (HOP-62 NSCLC) [µM],GI50 (PC-3 prostate),TGI (PC-3 prostate) [µM],TGI (SN12C renal) [µM],GI50 (SN12C renal) [µM]
O=c1/c(=C\c2ccc(Br)cc2)sc2n1C(c1ccc(Br)cc1)C1=C(N=2)c2ccc3ccccc3c2OCC1 (stereo not drawn),> 100 µM,> 100 µM,> 100 µM,> 100,> 100 µM,> 100,> 100 µM,> 100,> 100 µM,> 100,> 100 µM,> 100 µM,> 100 µM,> 100 µM,> 100 µM,> 100,> 100 µM,> 100,–,–
CCn1ncc(N=O)c1N,–,> 100 µM,–,> 100,–,> 100,–,> 100,–,> 100,–,> 100 µM,–,> 100 µM,–,> 100,–,> 100,> 100,–
Nc1nc(N)c2c(n1)CCC(S(=O)(=O)c1ccc3ccccc3c1)C2 (stereo not drawn),–,> 100 µM,–,34.5,–,26.7,–,> 100,–,> 51.2,–,> 75.3 µM,–,> 85.2 µM,–,> 100,–,> 100,> 100,–
CCOc1ccc2c(c1)C(=O)c1c-2n(CCCN=[N+]=[N-])c(=O)c2cc([N+](=O)[O-])ccc12,4.16 µM,74.4 µM,54.1 µM,> 100,19.1 µM,> 100,11.9 µM,> 100,21.4 µM,> 100,2.23 µM,11.5 µM,4.14 µM,85.5 µM,3 µM,43.6,15.1 µM,> 100,> 100,5.3
O=C(NN1C(=O)CSC1c1c(Cl)cccc1Cl)C(O)c1ccccc1 (stereo not drawn),37.3 µM,> 100 µM,34.1 µM,> 100,64.3 µM,> 100,52 µM,> 100,33.1 µM,> 100,29.3 µM,> 100 µM,71.6 µM,> 100 µM,> 100 µM,> 100,29.6 µM,> 100,> 100,34.9
NC1(C(=O)N[C@@H](CCO)c2ccc(Cl)cc2)CCN(c2ncnc3[nH]ccc23)CC1,0.455 µM and 0.482 µM,> 5.03 µM and 12.9 µM,1.9 µM and 10.9 µM,> 83.7,> 2.1 µM and 8.17 µM,> 100,> 4.3 µM and 42.5 µM,> 100,2.5 µM and 5.26 µM,> 100,1.17 µM and 5.53 µM,> 5.24 µM and 72.1 µM,1.5 µM and 3.82 µM,> 100 µM,3.69 µM and 4.89 µM,> 100,0.86 µM and 0.841 µM,> 100,> 100,13.9
COC(=O)[C@]12CC[C@@H](C)[C@H](C)[C@@H]1C1=CC[C@@H]3[C@@](C)(CC#N)C4=C(C[C@@]3(C)[C@]1(C)CC2)OC[C@]4(C)C=O,13.2 µM,40.6 µM,14.4 µM,29.6,5.81 µM,33,4.5 µM,> 100,5.85 µM,41.5,3.07 µM,39.5 µM,3.77 µM,> 100 µM,5 µM,36.6,3.31 µM,73.7,–,–
CN(C)C1CN(C(=O)c2cc(-c3ccc4ncnc(N5CCc6cc(F)c(Cl)cc65)c4c3)cnc2N)C1,1.18 µM,> 100 µM,1.97 µM,> 100,0.71 µM,> 100,0.819 µM,> 100,0.543 µM,> 100,0.237 µM,> 100 µM,1.65 µM,> 100 µM,0.586 µM,> 28.1,0.398 µM,> 23,> 100,0.385
O=C(CCN1CCCN(c2cnc3ccccc3n2)CC1)c1csc2ccccc12,58 µM,> 100 µM,17.6 µM,33.4,16.9 µM,33.2,21.6 µM,48.4,13 µM,28.2,14.8 µM,28 µM,36.7 µM,> 100 µM,28.1 µM,77.3,21.3 µM,50.6,44.7,21.9
Fc1ccc(Nc2nc3nonc3nc2Nc2ccc(I)cc2)cc1,0.214 µM,0.792 µM,0.208 µM,0.55,0.425 µM,9.24,0.312 µM,12.8,0.303 µM,10.3,0.156 µM,0.858 µM,0.275 µM,15.9 µM,0.344 µM,1.92,0.181 µM,10.7,11.2,0.26
CCN(CC)CC(O)c1cc(-c2ccc(Cl)cc2)nc2c(C)c(Cl)ccc12 (stereo not drawn),1.86 µM,3.5 µM,1.77 µM,3.35,1.77 µM,3.23,–,–,1.55 µM,2.94,0.549 µM,2.16 µM,1.86 µM,3.44 µM,1.57 µM,2.96,1.6 µM,2.97,3.22,1.5
O=C(/C=C/C=C/c1ccc2c(c1)OCO2)N/N=C\c1ccc(O)cc1O,0.925 µM,12.9 µM,2.31 µM,13.8,2.44 µM,18.3,2.67 µM,29.9,3.78 µM,26.2,1.47 µM,8.75 µM,2.79 µM,24.2 µM,1.61 µM,15.7,2.86 µM,23.1,16.2,2.98
COc1cc(C(=O)NN=C2c3ccccc3-c3ccccc32)cc(OC)c1OC,1.99 µM,7.13 µM,3.49 µM,32.1,10.5 µM,57.8,4.93 µM,39,2.32 µM,56.6,4.02 µM,75.3 µM,6.56 µM,43.5 µM,5.15 µM,35.9,2.72 µM,25,41.2,4.48
COCCn1c2c([n+](Cc3cnccn3)c1C)C(=O)c1ccccc1C2=O,0.027 µM,0.0843 µM,0.0235 µM,0.0626,< 0.01 µM,0.0373,< 0.01 µM,< 0.01,0.0309 µM,0.111,0.844 µM,> 78.5 µM,< 0.01 µM,0.0153 µM,0.0221 µM,0.119,< 0.01 µM,0.0359,0.0316,< 0.01
O=C(N/N=C/c1ccncc1)c1ccc(F)cc1,> 40 µM,> 40 µM,> 40 µM,> 40,> 40 µM,> 40,> 40 µM,> 40,> 40 µM,> 40,> 40 µM,> 40 µM,> 40 µM,> 40 µM,> 40 µM,> 40,> 40 µM,> 40,> 40,> 40
C=CC(=O)N1CCC[C@@H](n2nc(-c3ccc(Oc4ccccc4)cc3)c3c(N)ncnc32)C1,> 9.42 µM,> 10 µM,> 10 µM,> 10,> 10 µM,> 10,> 8.16 µM,> 10,> 7.23 µM,> 10,1.1 µM,> 10 µM,> 10 µM,> 10 µM,> 10 µM,> 10,> 10 µM,> 10,> 10,> 4.69
CC(=O)Nc1cc2c3c(cccc3c1)-c1ccccc1-2,5.13 µM,22.6 µM,> 100 µM,> 100,18.8 µM,52.5,45.9 µM,> 100,> 100 µM,> 100,0.356 µM,15.3 µM,40.2 µM,> 100 µM,22.7 µM,69.5,14.8 µM,> 100,> 100,0.72
COc1cc(N2CCC(N)CC2)ccc1Nc1ncc(Cl)c(-c2c[nH]c3ccccc23)n1,1.54 µM,3.31 µM,0.0248 µM,0.269,0.649 µM,2.23,1.13 µM,2.44,0.0343 µM,1.43,0.339 µM,2.12 µM,1.38 µM,4.19 µM,0.389 µM,1.99,1 µM,3.63,3.76,0.869
COc1c(B(O)O)cccc1-c1nc2c(F)cc3n[nH]c(C)c3c2c2c1CCCC2,1.28 µM,> 40.6 µM,1.51 µM,5.26,2.45 µM,48.5,1.22 µM,> 50,1.95 µM,> 50,0.225 µM,3.07 µM,1.17 µM,> 50 µM,0.303 µM,> 50,1.46 µM,> 50,> 50,0.854
CN(C)c1ccc(/C=c2/c3cc(O)ccc3n3c2cc(-c2ccccc2)[n+]3C)cc1,–,> 100 µM,–,–,–,> 100,–,2.03,–,3.86,4.45 µM,31.7 µM,0.277 µM,1.7 µM and 1.47 µM,–,4.37,–,2.25,–,0.187
CC[C@@H](C)/C=C(C)/C=C/C(=O)c1c(O)c(-c2ccc(O)cc2)cn(OC2CC(=O)CCC(C)OC(=O)CC2O)c1=O (stereo partly drawn),0.331 µM,4.89 µM,5.97 µM,21.2,2.53 µM,13.6,0.354 µM,22.8,3.47 µM,14.1,0.255 µM,1.92 µM,0.554 µM,14.9 µM,0.356 µM,12.9,5.62 µM,> 91.5,13.8,0.445
COc1ccc(/C=C/C(=O)/C=C(O)/C=C/c2ccc(OC)c(OC)c2)cc1OC,6.36 µM,> 100 µM,34.4 µM,> 100,14.5 µM,34.9,35.5 µM,95.9,3.64 µM,22.3,5.27 µM,> 100 µM,28 µM,> 100 µM,9.23 µM,49.2,2.88 µM,> 100,90.9,3.5
C[C@]12CC[C@@H]3c4ccc(OC(=O)N(CCCl)CCCl)cc4CC[C@H]3[C@@H]1CC[C@@H]2OP(=O)(O)O,12.5 µM,32.5 µM,57.8 µM,> 100,> 74.4 µM,> 100,> 85.6 µM,> 100,33.7 µM,> 100,79.9 µM,> 100 µM,28.5 µM,> 57.8 µM,63 µM,> 100,41.2 µM,> 100,40.1,17.2
CN(C)CCCCNc1ccc(NCCCCN(C)C)c2c1C(=O)c1c(O)ccc(O)c1C2=O,1.75 µM,3.3 µM,13.6 µM,28.6,1.58 µM,2.93,1.55 µM,2.94,1.19 µM,2.86,1.43 µM,2.93 µM,13.2 µM,26 µM,1.7 µM,3.13,1.94 µM,3.64,25.8,13.1
COc1cc(C)[nH]c(=O)c1CNC(=O)c1c(C)n([C@H](C)C2CCN(CC(F)(F)F)CC2)c2ccccc12,31.8 µM,> 100 µM,–,–,> 100 µM,> 100,> 100 µM,> 100,38.5 µM,> 100,28.2 µM,> 100 µM,74.5 µM,> 100 µM,> 100 µM,> 100,47.4 µM,> 100,> 100,43
